A short description of the series: Bioavailability after oral administration: blood (serum) vitamin C concentration by HPLC. Type of series: in vivo. The following applies: male, SD rat, 10 ml(200 mg)/kg. As to the method: The experimental animals used were SD rats (Samtago BIO KOREA Co., Ltd.), which have anatomical and physiological characteristics similar to humans and have the advantage of being useful as a pharmacokinetic model. The SD rats were male, 7-week-old (240-260 g), and were raised at a temperature of 20-24° C. and a relative humidity of 40-70%, and general symptoms were observed once a day for 5 days before the test. Solid feed for experimental animals (Purina Feed®) was provided, and the rats were allowed to consume it freely. […] As a control group, food vitamin C (purity 99.9%) was used, and the weight was measured and dissolved in purified water to prepare it. […] After putting the test substance into a 3 ml syringe, the zonde for rat oral administration was combined, and the test substance was administrated into the rat. For blood collection, about 300 μl of blood was collected from the jugular vein of all subjects in each group using a disposable syringe (1 ml, 26G, BD Biosciences, USA) at the scheduled time after administration. The blood was placed in a clean, light-shielded 1.5 ml amber tube, allowed to coagulate for 30 minutes at room temperature, and then centrifuged to separate the serum. The oral administration time points were 0, 1, 2, 4, 6, 8, 10, 12, and 24 hours (total of 9 time points). For blood sample separation and analysis, the harvested whole blood was coagulated and centrifuged at 3,000 rpm for 10 minutes using a centrifuge (Micro17R, Hanil, KOR) to separate the serum. Each 100 μl×1 tube was placed in a 1.5 ml Amber tube labeled with the test type, animal number, and blood collection time and stored in an ultra-low temperature freezer (approximately −70° C.). When testing, the stored samples were thawed at room temperature and the blood concentration of vitamin C was analyzed using HPLC (Alliance e2695, Waters, USA). […] For sample processing and analysis, 70 μL of the sample was taken and placed in a microtube, 70 μL of metaphosphoric acid (0.1 g/mL in water) was added, and then mixed using a vortexer for 30 seconds. The mixture was centrifuged at 14,000 rpm for 10 minutes, and the supernatant was transferred to a vial and injected into the HPLC for analysis. Since vitamin C is an endogenous substance, it was used after serum dialysis.

Structures are written as SMILES.

What is called Cmax is the peak of the concentration-time curve. Broadly, the Tmax is the time from dosing to the highest level. Regarding `O=C1O[C@H]([C@@H](O)CO)C(O)=C1O` [vitamin C, ascorbic acid], the Cmax was 12000 ng/mL and the Tmax was found to be 7.67 h. Besides, the AUC(0-t) (read-out: AUC0-24 of vitamin C) came out at 234 µg·h/mL. For the same compound, where the note is “read-out: T1/2 of vitamin C (converted)”, the half-life was 27.8 h.
